According to article PMC12610539, “Determination of Gnetol in Murine Biological Matrices by Liquid Chromatography–Tandem Mass Spectrometry (LC–MS/MS): Application in a Biodistribution Study” (International Journal of Molecular Sciences, 2025):
Where two headings read alike, the source gives them in different places.

Tests used:
[1] = Stability of stock solutions (1 mg/mL in DMSO); type: physicochemical
Method: (§1) Stock solutions of gnetol and resveratrol-^13C6 (IS) were prepared in DMSO at 1 mg/mL, stored at −20 °C, and protected from light. Calibration standards and QC samples were generated by serially diluting the gnetol stock into pooled blank murine plasma or hepatic homogenate. Stability was assessed under a range of storage and handling conditions. Stock solutions of gnetol and the IS were evaluated after storage on ice (0–4 °C) and at −20 °C. Plasma stability of gnetol was examined under short-term conditions (on ice for 6 h), long-term storage (−80 °C for 7 days), three freeze–thaw cycles, and post-preparative holding (autosampler at 4 °C for 24 h). Because stability is difficult to determine directly in intact tissues, only short-term stability in liver homogenate (on ice for 6 h) was assessed; for processed tissue extracts, post-preparative stability was likewise evaluated using liver homogenate as a representative matrix. Stability was considered acceptable when 85–115% of the initial gnetol concentration remained.

SARS-CoV-2 main protease = system: SARS-CoV-2 main protease; set-up: method as in PMID 39653224; conditions: cited from earlier work
tyrosinase = conditions: cited from earlier work
in vitro = in vitro ADME; conditions: mouse
Method: as §1, with “Stability” for “Stock solutions of gnetol and resveratrol-^13C6 (IS) were prepared in DMSO at 1 mg/mL, stored at −20 °C, and protected from light. Calibration standards and QC samples were generated by serially diluting the gnetol stock into pooled blank murine plasma or hepatic homogenate. Stability”

SMILES | remaining at 24 h, 1 mg/mL ([1]; stock solution in DMSO, stock solution 1.00 mg/mL, stored at ice-cold temperature for 24 h, n = 6, read-out: Remaining (%, Mean ± SD)) [%] | remaining at 168 h, 1 mg/mL ([1]; stock solution in DMSO, stock solution 1.00 mg/mL, stored at −20 °C for 7 days, n = 6, read-out: Remaining (%, Mean ± SD)) [%] | Inhibition of SARS-CoV-2 main protease (SARS-CoV-2 main protease) | Tyrosinase inhibition (tyrosinase) | remaining at 24 h, 1 mg/mL [1] [%] | remaining at 168 h, 1 mg/mL [1] [%] | remaining at 15 ng/mL (in vitro; plasma) [%] | remaining at 1200 ng/mL (in vitro; plasma) [%] | remaining at 6 h, 15 ng/mL (in vitro; plasma) [%] | remaining at 6 h, 1200 ng/mL (in vitro; plasma) [%] | remaining at 24 h, 15 ng/mL (in vitro; plasma) [%] | remaining at 24 h, 1200 ng/mL (in vitro; plasma) [%] | remaining at 168 h, 15 ng/mL (in vitro; plasma) [%] | remaining at 168 h, 1200 ng/mL (in vitro; plasma) [%] | remaining at 6 h, 15 ng/mL (in vitro; tissue homogenate) [%] | remaining at 6 h, 1200 ng/mL (in vitro; tissue homogenate) [%] | remaining at 24 h, 15 ng/mL (in vitro; tissue homogenate) [%] | remaining at 24 h, 1200 ng/mL (in vitro; tissue homogenate) [%]
Oc1cc(O)cc(/C=C/[13c]2[13cH][13cH][13c](O)[13cH][13cH]2)c1 [Resveratrol-^13C6, trans-3,5,4′-trihydroxystilbene-^13C6, reference compound] | 98.2 ± 3.9 | 100 ± 3.6 | – | – | – | – | – | – | – | – | – | – | – | – | – | – | – | –
Oc1cc(O)cc(/C=C/c2c(O)cccc2O)c1 [Gnetol, trans-2,3′,5′,6-tetrahydroxystilbene] | – | – | inhibits the SARS-CoV-2 main protease | potent tyrosinase inhibitor | 101 ± 5.3 | 98.2 ± 3.9 | 103 ± 11.6 | 112 ± 2.2 | 100 ± 7.3 | 106 ± 1.8 | 94 ± 7.7 | 103 ± 7.6 | 97.2 ± 6.3 | 112 ± 2.5 | 96.1 ± 11.3 | 110 ± 4.4 | 104 ± 4.5 | 88.9 ± 6.4
